Measurements published in US6818407B2, “Anti-endotoxic antimicrobial cationic peptides and methods of use therfor” (priority 1998, dated 2004).

How the values were obtained:
E. coli [1] = assay: MIC, broth microdilution assay in polypropylene microtiter trays; type: cell-based; conditions: average of three separate experiments
Protocol: (§1) The biological activity of the peptides can be determined by standard methods known to those of skill in the art, such as Aminimal inhibitory concentration (MIC)≅ assay described in the present examples, whereby the lowest concentration at which no change in OD is observed for a given period of time is recorded as MIC. Alternatively, Afractional inhibitory concentration (FIC)≅ is also useful for determination of synergy between the peptides of the invention, or the peptides in combination with known antibiotics. FICs are performed by checkerboard titrations of peptides in one dimension of a microtiter plate, and of antibiotics in the other dimension, for example. The FIC is calculated by looking at the impact of one antibiotic on the MIC of the other and vice versa. […] Preferably, an FIC of less than 0.5 is obtained for synergism. As used herein, FIC can be determined as follows: [formula]
(§2) A method which employed polypropylene microtiter trays in a broth microdilution assay was developed.

P. aeruginosa = assay: as above; type: cell-based; conditions: average of three separate experiments
Protocol: as §1, §2

S. aureus K147 = assay: as above; type: cell-based; conditions: average of three separate experiments
Protocol: as §1, §2

S. aureus = assay: as above; type: cell-based; conditions: average of three separate experiments
Protocol: as §1, §2

S. epidermis = assay: as above; type: cell-based; conditions: average of three separate experiments
Protocol: as §1, §2

[2] = test system: mutant (Nal B, H744) of P. aeruginosa; assay: microbe, parasite or virus in culture; type: cell-based; conditions: for (B) MIC of Cipro when combined with peptide: ciprofloxacin with peptide at concentration (A); for MIC A MIC of Peptides: peptide alone, P. aeruginosa mutant Nal B, H744 (Table 5); for (A) Peptide doses together with Cipro: peptide concentration in combination with ciprofloxacin
Protocol: as §1
(§3) To test whether the peptides of the invention synergize with various antibiotics, the following method was employed. Fractional Inhibitory Concentration (FIC) was used to determine synergy of peptides combined with antibiotics (e.g., carbenicillin/ciprofloxacin) against Pseudomonas aeruginosa. The following methodology was followed:
(§4) (1) Determination of MIC of cationic peptides (MIC A):
(§5) 100 μl Mueller Hinton broth (MHB) was added per well
(§6) 12.5 μl of 10× test concentration peptide was added per well to get final peptide concentration of e.g., 128, 64, 32, . . . 0.025 μg/ml from row 1 to 11;
(§7) 10 μl of 10^−4 dilution of overnight bacterial culture was added per well.
(§8) (2) Determination of MIC of Carbenicillin/Ciprofloxacin (MIC B):
(§9) 100 μl MHB was added per well;
(§10) 100 μl of 2× test concentration of antibiotic was added in the first well of the row, and doubling dilutions performed across the plate from column 1 to 11;
(§11) (3) Determination of MIC of antibiotics (B) when combined with peptides at concentration A:
(§12) 100 μl Carbenicillin (512 μg/ml) or Ciprofloxacin (8 μg/ml) was added in each well of column 1; doubling dilutions were performed across the plate;
(§13) 100 μl of the peptide was added in all wells of row 1, mixed, and 100 μl withdrawn and added to row 2, etc., creating a checkerboard titration.
(§14) 10 μl of 10^−4 dilution of overnight culture was added per well;
(§15) plates were incubated at 37EC for 18-24 hours. Combination MIC values A and B were taken as the lowest concentration of drug that reduced bacterial growth by more than 50% in any given column.
(§16) (4) FIC index=FICA+FICB=(A)/MIC A+(B)/MIC B. An FIC index of approximately 0.5 or less indicates synergy; 1.0 reflects additivity; and >1.0 indicates antagonism.

[3] = test system: β-lactamase derepressed mutant (H547) of P. aeruginosa; assay: microbe, parasite or virus in culture; type: cell-based; conditions: P. aeruginosa H547; for (B) MIC of Carb when combined with peptide: Carbenicillin with peptide at concentration (A); for MIC A MIC of Peptides: peptide alone; for (A) Peptide doses together with Carb: peptide concentration in combination with Carbenicillin
Protocol: as §1, §3, §4, §5, §6, §7, §8, §9, §10, §11, §12, §13, §14, §15, §16

E. coli [4] = assay: Synergy study (checkerboard titration) with hen white lysozyme; type: cell-based; conditions: for Lowest [CP] showing synergy: cationic peptide concentration, combined with lysozyme; for Lowest [Lyso] showing synergy: lysozyme concentration, combined with the peptide
Protocol: as §1

P. aeruginosa (H103) = assay: as above; type: cell-based; conditions: for Lowest [CP] showing synergy: cationic peptide concentration, combined with lysozyme; for Lowest [Lyso] showing synergy: lysozyme concentration, combined with the peptide
Protocol: as §1

Salmonella typhi = assay: as above; type: cell-based; conditions: for Lowest [CP] showing synergy: cationic peptide concentration, combined with lysozyme; for Lowest [Lyso] showing synergy: lysozyme concentration, combined with the peptide
Protocol: as §1

[5] = Lethal endotoxemia in galactosamine-sensitized mice; type: in vivo, CD-1 mice; conditions: peptide 200 μg intraperitoneal within 10 min of 10 μg LPS; 24 hours post injection; 5 mice per group; no peptide 100
Protocol: To confirm this in vivo, endotoxic shock was induced by intraperitoneal injection of 10 μg of E.coli 0111:B4 LPS in phosphate-buffered saline (PBS; pH 7.2) into galactosamine-sensitized 8- to 10- week old female CD-1 mice (5 per group). In experiments involving peptides, 200 μg in 100 μl of sterile water was injected at separate intraperitoneal sites within 10 min of LPS injection. Survival was monitored at 24 hours post injection.

[6] = test system: Pseudomonas aeruginosa strain M2; assay: Protection of neutropenic CD-1 mice challenged with Pseudomonas aeruginosa; type: in vivo; parameters: Survival post bacterial challenge, surviving mice: reference not given here; conditions: for Survival (%) post bacterial challenge: PBS 8
Protocol: CD-1 mice were induced to be neutropenic via 3 intraperitoneal injections of cyclophosphamide ([…]) every another day. Immediately after the third administration of cyclophosphamide, the mice were challenged by intraperitoneal injection of Pseudomonas aeruginosa strain M2 (200-300 organisms/mouse). Cationic peptides (200 µg per mouse=8 mg/kg) in 100 µl buffered citrate were injected intraperitoneally at 30 min (single dose) or 30 min and 16 hrs (double dose) post bacterial challenge, respectively. The data were the average values of 2 individual experiments. PBS was used as a control. […] In general single dose protection studies gave better protection than double dose experiments.

## CC[C@H](C)[C@H](NC(=O)CNC(=O)[C@@H](NC(=O)[C@H](CCCCN)NC(=O)[C@H](CCCCN)NC(=O)[C@H](Cc1ccccc1)NC(=O)[C@H](CC(C)C)NC(=O)[C@@H](N)CCCCN)[C@@H](C)CC)C(=O)NCC(=O)N[C@@H](C)C(=O)N[C@H](C(=O)N[C@@H](CC(C)C)C(=O)N[C@@H](CCCCN)C(=O)N[C@H](C(=O)N[C@@H](CC(C)C)C(=O)N[C@@H](CCCCN)C(=O)N[C@H](C(=O)N[C@@H](CC(C)C)C(=O)N[C@H](C(=O)N[C@H](C(=O)NCC(=O)N[C@@H](CC(C)C)C(=O)N1CCC[C@H]1C(=O)N[C@@H](C)C(=O)N[C@@H](CC(C)C)C(=O)N[C@@H](CCCCN)C(=O)N[C@@H](CC(C)C)C(=O)N[C@H](C(=O)N[C@@H](CC(C)C)C(=O)N[C@@H](CCCCN)C(=O)O)[C@@H](C)O)[C@@H](C)O)[C@@H](C)O)C(C)C)C(C)C)C(C)C [CM5]
E. coli [1]
  MIC E. coli: 4 µg/mL
P. aeruginosa
  MIC P. aeruginosa: 16 µg/mL
S. aureus K147
  MIC S. aureus K147: 64 µg/mL
S. aureus
  MIC S. aureus: >64 µg/mL
S. epidermis
  MIC S. epidermis: 11 µg/mL
[2]; Nal B, H744
  (B) MIC of Cipro when combined with peptide: .125 µg/mL
  (A) Peptide doses together with Cipro: 1 µg/mL
[2]; peptide + ciprofloxacin, Nal B, H744
  FIC index: .75
[2]
  MIC A MIC of Peptides: 4 µg/mL
[3]
  (B) MIC of Carb when combined with peptide: 16 µg/mL
  MIC A MIC of Peptides: 32 µg/mL
  (A) Peptide doses together with Carb: 4 µg/mL
[3]; peptide + Carbenicillin, about 0.5 or less synergy, 1.0 additivity, >1.0 antagonism
  FIC index: 0.38
E. coli [4]
  FIC for combination of cationic peptide and lysozyme: 0.27
  Lowest [CP] showing synergy: 1.3 µg/mL
  Lowest [Lyso] showing synergy: 7.8 µg/mL
P. aeruginosa (H103)
  FIC for combination of cationic peptide and lysozyme: 0.63
  Lowest [CP] showing synergy: 10.4 µg/mL
  Lowest [Lyso] showing synergy: 125 µg/mL
Salmonella typhi
  FIC for combination of cationic peptide and lysozyme: 0.56
  Lowest [CP] showing synergy: 10.4 µg/mL
  Lowest [Lyso] showing synergy: 62.5 µg/mL
[5]
  Mortality (%): 80%

## H-KWKSFIKKLTSAAKKVVTTAKPLALIS-OH [CM1]
E. coli [1]
  MIC E. coli: 1 µg/mL
P. aeruginosa
  MIC P. aeruginosa: 5 µg/mL
S. aureus K147
  MIC S. aureus K147: 32 µg/mL
S. aureus
  MIC S. aureus: 64 µg/mL
S. epidermis
  MIC S. epidermis: 21 µg/mL
[2]; Nal B, H744
  (B) MIC of Cipro when combined with peptide: .25 µg/mL
  (A) Peptide doses together with Cipro: 1 µg/mL
[2]
  MIC A MIC of Peptides: 2 µg/mL
[3]
  (B) MIC of Carb when combined with peptide: 64 µg/mL
  MIC A MIC of Peptides: 16 µg/mL
  (A) Peptide doses together with Carb: 2 µg/mL
E. coli [4]
  FIC for combination of cationic peptide and lysozyme: 0.19
  Lowest [CP] showing synergy: 0.041 µg/mL
  Lowest [Lyso] showing synergy: 7.8 µg/mL
P. aeruginosa (H103)
  FIC for combination of cationic peptide and lysozyme: 0.28
  Lowest [CP] showing synergy: 0.65 µg/mL
  Lowest [Lyso] showing synergy: 7.8 µg/mL
Salmonella typhi
  FIC for combination of cationic peptide and lysozyme: 0.53
  Lowest [CP] showing synergy: 0.531 µg/mL
  Lowest [Lyso] showing synergy: 31.3 µg/mL
[5]
  Mortality (%): 100%

## CC[C@H](C)[C@H](NC(=O)CNC(=O)[C@@H](NC(=O)[C@H](CCCCN)NC(=O)[C@H](CCCCN)NC(=O)[C@H](Cc1ccccc1)NC(=O)[C@H](CCCCN)NC(=O)[C@H](Cc1c[nH]c2ccccc12)NC(=O)[C@@H](N)CCCCN)[C@@H](C)CC)C(=O)NCC(=O)N[C@@H](C)C(=O)N[C@H](C(=O)N[C@@H](CC(C)C)C(=O)N[C@@H](CCCCN)C(=O)N[C@H](C(=O)N[C@@H](CC(C)C)C(=O)N[C@@H](CCCCN)C(=O)N[C@H](C(=O)N[C@@H](CC(C)C)C(=O)N[C@H](C(=O)N[C@H](C(=O)NCC(=O)N[C@@H](CC(C)C)C(=O)N1CCC[C@H]1C(=O)N[C@@H](C)C(=O)N[C@@H](CC(C)C)C(=O)N[C@@H](CCCCN)C(=O)N[C@@H](CC(C)C)C(=O)N[C@H](C(=O)N[C@@H](CC(C)C)C(=O)N[C@@H](CCCCN)C(=O)O)[C@@H](C)O)[C@@H](C)O)[C@@H](C)O)C(C)C)C(C)C)C(C)C [CM6]
E. coli [1]
  MIC E. coli: 2 µg/mL
P. aeruginosa
  MIC P. aeruginosa: 8 µg/mL
S. aureus K147
  MIC S. aureus K147: 32 µg/mL
S. aureus
  MIC S. aureus: 32 µg/mL
S. epidermis
  MIC S. epidermis: 8 µg/mL
[2]; Nal B, H744
  (B) MIC of Cipro when combined with peptide: .125 µg/mL
  (A) Peptide doses together with Cipro: 1 µg/mL
[2]
  MIC A MIC of Peptides: 1 µg/mL
[3]
  (B) MIC of Carb when combined with peptide: 64 µg/mL
  MIC A MIC of Peptides: 2 µg/mL
  (A) Peptide doses together with Carb: 1 µg/mL
E. coli [4]
  FIC for combination of cationic peptide and lysozyme: 0.08
  Lowest [CP] showing synergy: 0.326 µg/mL
  Lowest [Lyso] showing synergy: 7.8 µg/mL
P. aeruginosa (H103)
  FIC for combination of cationic peptide and lysozyme: 0.63
  Lowest [CP] showing synergy: 5.21 µg/mL
  Lowest [Lyso] showing synergy: 125 µg/mL
Salmonella typhi
  FIC for combination of cationic peptide and lysozyme: 0.50
  Lowest [CP] showing synergy: 5.21 µg/mL
  Lowest [Lyso] showing synergy: 7.8 µg/mL
[5]
  Mortality (%): 100%
[6]; double dose (200 μg per mouse i.p. at 30 min and 16 hrs), 16 hr
  Survival post bacterial challenge, surviving mice: 14
[6]; double dose, 24 hr
  Survival post bacterial challenge, surviving mice: 14
[6]; double dose, 41 hr
  Survival post bacterial challenge, surviving mice: 11
[6]; double dose, 48 hr
  Survival post bacterial challenge, surviving mice: 9
[6]; double dose, 64 hr
  Survival post bacterial challenge, surviving mice: 6
  Survival (%) post bacterial challenge: 42%
[6]; double dose, 72 hr
  Survival post bacterial challenge, surviving mice: 6
  Survival (%) post bacterial challenge: 42%
[6]; double dose, 96 hr
  Survival post bacterial challenge, surviving mice: 5
  Survival (%) post bacterial challenge: 35%
[6]; single dose (200 μg per mouse i.p. at 30 min), 16 hr
  Survival post bacterial challenge, surviving mice: 15
[6]; single dose, 24 hr
  Survival post bacterial challenge, surviving mice: 15
[6]; single dose, 41 hr
  Survival post bacterial challenge, surviving mice: 13
[6]; single dose, 48 hr
  Survival post bacterial challenge, surviving mice: 11
[6]; single dose, 64 hr
  Survival post bacterial challenge, surviving mice: 9
  Survival (%) post bacterial challenge: 60%
[6]; single dose, 72 hr
  Survival post bacterial challenge, surviving mice: 9
  Survival (%) post bacterial challenge: 60%
[6]; single dose, 96 hr
  Survival post bacterial challenge, surviving mice: 7
  Survival (%) post bacterial challenge: 46%
